According to patent US10301298B2, “Methods, compounds, and compositions for the treatment of angiotensin-related diseases” (University of Southern California, priority 2013, dated 2019):
“Also recorded” adds a separate entry of the source.

Experiments:
Mas [1] = biological target: T1, Mas (Homo sapiens, UniProt P04201); experiment: Competition binding assay, displacement of fluorescent Ang(1-7) from Mas-transfected CHO cells; set-up: concentration or dose not given beside the values; conditions: CHO cells transfected with Human mas1, on ice
T1 construct: expressed in transfected cells
T1 sequence (P04201 1-325): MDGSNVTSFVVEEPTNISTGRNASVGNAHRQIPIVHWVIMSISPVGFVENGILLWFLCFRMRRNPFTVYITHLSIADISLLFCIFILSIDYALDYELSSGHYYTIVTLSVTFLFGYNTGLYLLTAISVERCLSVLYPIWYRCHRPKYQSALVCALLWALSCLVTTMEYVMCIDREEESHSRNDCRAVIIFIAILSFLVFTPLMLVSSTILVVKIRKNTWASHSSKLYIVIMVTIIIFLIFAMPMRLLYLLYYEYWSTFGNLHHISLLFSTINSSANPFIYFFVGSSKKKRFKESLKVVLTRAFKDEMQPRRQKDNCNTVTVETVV
Method: CHO cells stably transfected with recombinant Human mas1 proto-oncogen driven by the human cytomegalovirus were grown to 80% confluency. The cells were detached with trypsin and harvested by centrifugation. Cells were washed three times in progressively colder buffers. The final number of cells per assay was 5×10^5. All subsequent steps were performed on ice. Test compound was added to the cells for 10 minutes prior to addition of fluorescently labeled A(1-7). After 10 minutes further incubation, the cells were washed to remove unbound A(1-7) and the fluorescence bound was read at an excitation of 490 nm and an emission of 520 nm.

db/db mice = experiment: Bone marrow cell counts and progenitor colonies in db/db mice; assay type: in vivo; conditions: 500 mcg/kg/day subcutaneously, 14 days
Method: The femurs and tibia were collected from db/db mice treated 500 mcg/kg/day Ang(1-7) or Compound 7 subcutaneously for 14 days were euphanized and the bone marrow were collected by flushing with PBS containing 2% fetal calf serum. After collection of the bone marrow, the red blood cells will be lysed with a hypotonic solution (described above), mixed with 0.04% trypan blue and the number of nucleated cells was assessed by hematocytometer under light microscopy. Aliquots of cells were then resuspended at 1×10^6 cells/ml (GM and GEMM, bone marrow), 1.5×10^6 cells/ml (BFU-E, bone marrow). One hundred μ1 of each suspension was added to 900 μl of semisolid medium containing 0.9% methyl cellulose in Iscove's MDM, 15% fetal calf serum, 1% bovine serum albumin, 10 μg/ml bovine pancreatic insulin, 200 μg/ml human transferrin, 10^−4 M 2-mercaptoethanol, 2 mM glutamine, 10 ng/ml recombinant murine interleukin 3, 10 ng/ml recombinant human interleukin 6, 50 ng/ml recombinant murine stem cell factor and 3 units/ml erthropoietin. This mixture was then added to duplicate wells of a 24 well plate. The cultures were then placed at 37° C. in a humidified atmosphere of 5% CO2 in air. At day 14, the number of progenitor colonies formed was enumerated under phase contrast microscopy.
The bone marrow cells were also cultured to assess the number of MSCs by a CFU—F assay. 2.5×10^5 cells/ml, 2 ml per well, were diluted into Mesencult medium (Stem Cell Technologies, Vancouver, BC, Canada) and 2 mL were placed in each well of a 24 well plate. The cultures were then incubated at 37° C. in a humidified atmosphere of 5% CO2 in air. At days 2, 5 and 8, the number of progenitor colonies formed was enumerated under phase contrast microscopy.

Mas [2] = biological target: T1, Mas; experiment: NO production in CHO cells stably transfected with Human Mas1; assay type: cell-based
Method: Transfected cells that express Mas were used to identify and evaluate provided compounds as Mas agonists, by promoting NO production as readouts. CHO cells stably transfected with pTEJ-8 vector containing recombinant Human Mas1 clone were grown to confluency. Cells were washed three times for 30/5/5 minutes with prewarmed (37° C.) Tyrodes Salts (supplemented with 1 g/L NaHCO3, and 1.9 g/L d-Glucose). Cells were incubated for a short time in 700 μL of supplemented Tyrodes salts containing 10 μM PTIO, 100 μM DAN, and 1 mM L-arginine. When using antagonist for competition assays, cells were exposed to the inhibitor at 1×10^−7 M for 15 minutes, before additional drugs are added.
Chemicals (10^−8 to 10^−6 M or the maximum concentration found not to cause cytotoxicity) to be screened were added to the cell medium and the plates were agitated for 1 minute before being placed into the incubator for 2 hours. After 2 hours, cellular supernatants were transferred to opaque 96 well plates, and the fluorescence intensity was recorded at an ex/em of 380/425.

% Displacement (Mas [1]) [%] | ability to enhance NO production (fluorescence) (Mas [2]; Mas-transfected CHO cells) | NO production with co-administration of A779 (Mas [2]; with A779, selective Mas antagonist, 1×10^−7 M) | Molecule | bone marrow counts (db/db mice)
18.6 | – | – | CCCCOC(=O)NS(=O)(=O)c1ccc(OC(F)(F)F)cc1-c1ccc(CN2CCN(C)C2=O)cn1 [Compound 8, butyl (2-(5-((3-methyl-2-oxoimidazolidin-1-yl)methyl)pyridin-2-yl)-4-(trifluoromethoxy)phenyl) sulfonylcarbamate] | –
17.3 | – | – | CCCCOC(=O)NS(=O)(=O)c1ccc(OC(F)(F)F)cc1-c1ccc(CN2CCOCC2)cn1 [Compound 9, butyl (2-(5-(morpholinomethyl)pyridin-2-yl)-4-(trifluoromethoxy)phenyl)sulfonyl-carbamate] | –
22.0 | – | – | CCCCOC(=O)NS(=O)(=O)c1ccc(OC(F)(F)F)cc1-c1ccc(CN2CCN(C)CC2)cn1 [Compound 10, butyl (2-(5-((4-methylpiperazin-1-yl)methyl)pyridin-2-yl)-4-(trifluoromethoxy)phenyl)sulfonylcarbamate] | –
23.0 | – | – | CCCCOC(=O)NS(=O)(=O)c1ccc(OC(F)(F)F)cc1-c1ncc(Cn2ccnc2)s1 [Compound 11, butyl (2-(5-((1H-imidazol-1-yl)methyl)thiazol-2-yl)-4-(trifluoromethoxy)phenyl)sulfonylcarbamate] | –
– | concentration dependent increase in NO | back to baseline fluorescence | Asp-Arg-Val-Tyr-Ile-His-Pro [Ang(1-7), reference compound] | increase bone marrow counts; also recorded: increased the bone marrow counts
